According to PubChem BioAssay AID248 (DTP/NCI, 2004):
Where “and” joins values, the source holds several entries; their conditions need not be identical. Equal values may be shown once. Toxic doses and inconclusive results are not listed. Cut-off read from the data, not from the text of the source: active = T/C of 150% or more; inactive = T/C below 125%.

System: L1210 leukemia ip in BDF1 mice, survival T/C
Experiment: NCI In Vivo Anticancer Drug Screen. Data for tumor model L1210 Leukemia (intraperitoneal) in B6D2F1 (BDF1) mice
Details: higher = longer survival
How it was run: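 Read-out is survival time, reported as the treated-group measurement over the vehicle-control measurement.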

[1] = endpoint: mean survival time, dose: 100.0 mg/kg/injection, schedule: Q01DX009 (ip), vehicle: Klucel (hydroxypropylcellulose) (HPC)
[2] = endpoint: mean survival time, dose: 200.0 mg/kg/injection, schedule: Q01DX009 (ip), vehicle: Klucel (hydroxypropylcellulose) (HPC)
[3] = endpoint: mean survival time, dose: 400.0 mg/kg/injection, schedule: Q01DX009 (ip), vehicle: Klucel (hydroxypropylcellulose) (HPC)
[4] = endpoint: mean survival time, dose: 100.0 mg/kg/injection, schedule: Q04DX003 (ip), vehicle: saline
[5] = endpoint: mean survival time, dose: 200.0 mg/kg/injection, schedule: Q04DX003 (ip), vehicle: saline
[6] = endpoint: mean survival time, dose: 400.0 mg/kg/injection, schedule: Q04DX003 (ip), vehicle: saline
[7] = endpoint: mean survival time, dose: 25.0 mg/kg/injection, schedule: Q01DX009 (ip), vehicle: saline
[8] = endpoint: mean survival time, dose: 50.0 mg/kg/injection, schedule: Q01DX009 (ip), vehicle: saline
[9] = endpoint: mean survival time, dose: 100.0 mg/kg/injection, schedule: Q01DX009 (ip), vehicle: saline
[10] = endpoint: mean survival time, dose: 100.0 mg/kg/injection, schedule: Q04DX003 (ip), vehicle: saline with Tween-80
[11] = endpoint: mean survival time, dose: 200.0 mg/kg/injection, schedule: Q04DX003 (ip), vehicle: saline with Tween-80
[12] = endpoint: mean survival time, dose: 400.0 mg/kg/injection, schedule: Q04DX003 (ip), vehicle: saline with Tween-80
[13] = endpoint: mean survival time, dose: 200.0 mg/kg/injection, schedule: Q01DX009 (ip), vehicle: saline
[14] = endpoint: mean survival time, dose: 25.0 mg/kg/injection, schedule: Q01DX009 (ip), vehicle: Klucel (hydroxypropylcellulose) (HPC)
[15] = endpoint: mean survival time, dose: 25.0 mg/kg/injection, schedule: Q04DX002 (ip), vehicle: Klucel (hydroxypropylcellulose) (HPC)
[16] = endpoint: mean survival time, dose: 50.0 mg/kg/injection, schedule: Q01DX009 (ip), vehicle: Klucel (hydroxypropylcellulose) (HPC)
[17] = endpoint: mean survival time, dose: 50.0 mg/kg/injection, schedule: Q04DX002 (ip), vehicle: Klucel (hydroxypropylcellulose) (HPC)
[18] = endpoint: mean survival time, dose: 100.0 mg/kg/injection, schedule: Q04DX002 (ip), vehicle: Klucel (hydroxypropylcellulose) (HPC)

Measured: T/C

C/C(CCC(=O)O)=N/Nc1nnc(N/N=C(/C)CCC(=O)O)c2ccccc12
inactive: endpoint: mean survival time, dose: 50.0 mg/kg/injection, schedule: Q01DX001 (ip), vehicle: saline 102 % of control | endpoint: mean survival time, dose: 100.0 mg/kg/injection, schedule: Q01DX001 (ip), vehicle: saline 102 % of control | endpoint: mean survival time, dose: 200.0 mg/kg/injection, schedule: Q01DX001 (ip), vehicle: saline 102 % of control | endpoint: mean survival time, dose: 400.0 mg/kg/injection, schedule: Q01DX001 (ip), vehicle: saline 120 % of control

CC(=O)OC1C(O)C(C)OC(OC2C(OC(=O)C3CCC4C(C3)OC3(CC(OC(=O)/C=C/c5ccccc5)C(C)CO3)C43CO3)OC(C)C(O)C2OC(C)=O)C1O (stereo not given)
inactive: endpoint: median survival time, dose: 0.5 mg/kg/injection, schedule: Q01DX009 (ip), vehicle: distilled water + Tween-80 92 % of control | endpoint: median survival time, dose: 1.0 mg/kg/injection, schedule: Q01DX009 (ip), vehicle: distilled water + Tween-80 95 % of control | endpoint: median survival time, dose: 2.0 mg/kg/injection, schedule: Q01DX009 (ip), vehicle: distilled water + Tween-80 95 % of control | endpoint: median survival time, dose: 4.0 mg/kg/injection, schedule: Q01DX009 (ip), vehicle: distilled water + Tween-80 104 % of control | endpoint: median survival time, dose: 8.0 mg/kg/injection, schedule: Q01DX009 (ip), vehicle: distilled water + Tween-80 107 % of control | endpoint: median survival time, dose: 16.0 mg/kg/injection, schedule: Q01DX009 (ip), vehicle: distilled water + Tween-80 115 % of control | endpoint: median survival time, dose: 32.0 mg/kg/injection, schedule: Q01DX009 (ip), vehicle: distilled water + Tween-80 104 % of control

COc1ccc(CCBr)cc1
inactive: [1] 97 % of control | [2] 97 % of control | [3] 95 % of control

CCC(Cl)COP(=O)(OCC(Cl)CC)C(CC)P(=O)(OCC(Cl)CC)OCC(Cl)CC (stereo not given)
inactive: [4] 91 % of control | [5] 95 % of control | [6] 93 % of control

C#CCNc1ncnc2c1ncn2C1OC(CO)C(O)C1O (stereo not given)
inactive: endpoint: mean survival time, dose: 50.0 mg/kg/injection, schedule: Q01DX005 (ip), vehicle: saline 105 % of control | endpoint: mean survival time, dose: 100.0 mg/kg/injection, schedule: Q01DX005 (ip), vehicle: saline 101 % of control | endpoint: mean survival time, dose: 200.0 mg/kg/injection, schedule: Q01DX005 (ip), vehicle: saline 94 % of control

CS(=O)(=O)Nc1cc(C(O)C2CCCCN2)ccc1O (stereo not given)
inactive: [7] 103 % of control | [8] 97 % of control | [9] 95 % of control | [4] 104 % of control | [5] 104 % of control

CC1(c2cccc(N)c2)OCCO1
inactive: endpoint: mean survival time, dose: 100.0 mg/kg/injection, schedule: Q01DX009 (ip), vehicle: saline with Tween-80 100 % of control | [10] 94 % of control | endpoint: mean survival time, dose: 200.0 mg/kg/injection, schedule: Q01DX009 (ip), vehicle: saline with Tween-80 102 % of control | [11] 100 % of control | endpoint: mean survival time, dose: 400.0 mg/kg/injection, schedule: Q01DX009 (ip), vehicle: saline with Tween-80 91 % of control | [12] 97 % of control

CCCCSCC(N)CO (stereo not given)
inactive: [4] 101 % of control | [5] 101 % of control

CC([NH-])C(=O)O.O=C(O)CN(CC(=O)O)CC(=O)O.[Co+2]
inactive: [8] 110 % of control | [9] 103 % of control | [4] 104 % of control | [13] 93 % of control | [5] 106 % of control | [6] 100 % of control

O=P1(Cc2ccccc2)CCC(O)=C1c1ccccc1 (stereo not given)
inactive: [10] 94 % of control | [11] 102 % of control | [12] 91 % of control

CC(C)(C)O.[Zr]
inactive: endpoint: mean survival time, dose: 25.0 mg/kg/injection, schedule: Q01DX009 (ip), vehicle: other 108 % of control | endpoint: mean survival time, dose: 50.0 mg/kg/injection, schedule: Q01DX009 (ip), vehicle: other 97 % of control | endpoint: mean survival time, dose: 100.0 mg/kg/injection, schedule: Q01DX009 (ip), vehicle: other 90 % of control | [4] 96 % of control | endpoint: mean survival time, dose: 200.0 mg/kg/injection, schedule: Q01DX009 (ip), vehicle: other 103 % of control | [5] 98 % of control | [6] 94 % of control

CC12CCC3=C(OCCO3)C1=CCC1C2CCC2(C)C(O)CCC12 (stereo not given)
inactive: endpoint: mean survival time, dose: 50.0 mg/kg/injection, schedule: Q01DX001 (sc), vehicle: steriod suspending solution 95 % of control | endpoint: mean survival time, dose: 100.0 mg/kg/injection, schedule: Q01DX001 (sc), vehicle: steriod suspending solution 91 % of control | endpoint: mean survival time, dose: 200.0 mg/kg/injection, schedule: Q01DX001 (sc), vehicle: steriod suspending solution 103 % of control | endpoint: mean survival time, dose: 400.0 mg/kg/injection, schedule: Q01DX001 (sc), vehicle: steriod suspending solution 101 % of control

CC1(C(Cl)(Cl)Cl)C=CC(O)C=C1 (stereo not given)
inactive: [14] 90 % of control | [15] 87 % of control | [16] 93 % of control | [17] 93 % of control | [1] 97 % of control and 90 % of control | [18] 97 % of control and 89 % of control | endpoint: mean survival time, dose: 150.0 mg/kg/injection, schedule: Q01DX009 (ip), vehicle: Klucel (hydroxypropylcellulose) (HPC) 93 % of control

CCCCCCCCCC(=O)N(CCC)CCC
inactive: [10] 91 % of control | [11] 88 % of control

NCCc1cc(O)c(O)cc1O
inactive: [7] 102 % of control and 107 % of control | [8] 93 % of control and 103 % of control | [9] 93 % of control and 91 % of control | [13] 88 % of control | endpoint: mean survival time, dose: 400.0 mg/kg/injection, schedule: Q01DX009 (ip), vehicle: saline 86 % of control

O=C1C2C(C(=O)N1c1cccc3ccccc13)C1(Cl)C(Cl)=C(Cl)C2(Cl)C1(Cl)Cl (stereo not given)
inactive: endpoint: mean survival time, dose: 12.5 mg/kg/injection, schedule: Q01DX009 (ip), vehicle: Klucel (hydroxypropylcellulose) (HPC) 103 % of control | [14] 104 % of control | [16] 96 % of control

O=C(N[C@H](CO)[C@H](O)c1ccc([N+](=O)[O-])cc1)C(Cl)Cl
inactive: endpoint: mean survival time, dose: 316.0 mg/kg/injection, schedule: Q01DX001 (ip), vehicle: carboxymethylcellulose (CMC) 106 % of control | endpoint: mean survival time, dose: 475.0 mg/kg/injection, schedule: Q01DX001 (ip), vehicle: carboxymethylcellulose (CMC) 115 % of control | endpoint: mean survival time, dose: 720.0 mg/kg/injection, schedule: Q01DX001 (ip), vehicle: carboxymethylcellulose (CMC) 113 % of control | endpoint: median survival time, dose: 274.4 mg/kg/injection, schedule: Q01DX001 (ip), vehicle: saline 105 % of control | endpoint: median survival time, dose: 392.0 mg/kg/injection, schedule: Q01DX001 (ip), vehicle: saline 100 % of control and 101 % of control | endpoint: median survival time, dose: 560.0 mg/kg/injection, schedule: Q01DX001 (ip), vehicle: saline 93 % of control and 94 % of control and 95 % of control | endpoint: median survival time, dose: 560.0 mg/kg/injection, schedule: Q03DX001 (ip), vehicle: saline 88 % of control | endpoint: median survival time, dose: 800.0 mg/kg/injection, schedule: Q01DX001 (ip), vehicle: saline 99 % of control and 100 % of control and 102 % of control | endpoint: median survival time, dose: 800.0 mg/kg/injection, schedule: Q03DX001 (ip), vehicle: saline 100 % of control

O=C(Nc1ccc(Br)cc1)Oc1ccccc1C(=O)Nc1ccccc1
inactive: [1] 98 % of control | [2] 98 % of control | [3] 88 % of control

Nc1nc2c(c(=O)[nH]1)CP(=S)(c1ccccc1)CC2 (stereo not given)
inactive: endpoint: mean survival time, dose: 100.0 mg/kg/injection, schedule: Q04DX002 (ip), vehicle: saline with Tween-80 102 % of control | endpoint: mean survival time, dose: 200.0 mg/kg/injection, schedule: Q04DX002 (ip), vehicle: saline with Tween-80 102 % of control | endpoint: mean survival time, dose: 400.0 mg/kg/injection, schedule: Q04DX002 (ip), vehicle: saline with Tween-80 94 % of control

NCCCNCCCN
inactive: [15] 103 % of control | [17] 97 % of control | [18] 103 % of control and 117 % of control

COc1cc2c3c(c1)C(=O)CCN3CCC2
inactive: endpoint: mean survival time, dose: 100.0 mg/kg/injection, schedule: Q04DX003 (ip), vehicle: Klucel (hydroxypropylcellulose) (HPC) 93 % of control | endpoint: mean survival time, dose: 200.0 mg/kg/injection, schedule: Q04DX003 (ip), vehicle: Klucel (hydroxypropylcellulose) (HPC) 93 % of control

Cc1cccc(Nc2c3ccccc3nc3ccccc23)c1
inactive: endpoint: mean survival time, dose: 25.0 mg/kg/injection, schedule: Q01DX001 (ip), vehicle: saline with Tween-80 97 % of control | endpoint: mean survival time, dose: 50.0 mg/kg/injection, schedule: Q01DX001 (ip), vehicle: saline with Tween-80 100 % of control | endpoint: mean survival time, dose: 100.0 mg/kg/injection, schedule: Q01DX001 (ip), vehicle: saline with Tween-80 104 % of control

ClC1=C(Cl)C2(Cl)CC(Cl)C1C2(Cl)Cl (stereo not given)
inactive: endpoint: mean survival time, dose: 10.0 mg/kg/injection, schedule: Q01DX001 (ip), vehicle: acetone 105 % of control | endpoint: mean survival time, dose: 20.0 mg/kg/injection, schedule: Q01DX001 (ip), vehicle: acetone 105 % of control
